Results reported in publication PMC7170716 (Nature, 2020).

Experiments:
[1] = biological target: T1, M. thermoresistibile IrtAB (full-length) (Mycolicibacterium thermoresistibile, UniProt G7CBF5+G7CBF6); test: ATPase stimulation in nanodiscs, malachite green; format: biochemical; conditions: 2.5 mM ATP, 10 mM MgSO4, 37 °C, acyl chain length not defined
T1 sequence (G7CBF5 1-908): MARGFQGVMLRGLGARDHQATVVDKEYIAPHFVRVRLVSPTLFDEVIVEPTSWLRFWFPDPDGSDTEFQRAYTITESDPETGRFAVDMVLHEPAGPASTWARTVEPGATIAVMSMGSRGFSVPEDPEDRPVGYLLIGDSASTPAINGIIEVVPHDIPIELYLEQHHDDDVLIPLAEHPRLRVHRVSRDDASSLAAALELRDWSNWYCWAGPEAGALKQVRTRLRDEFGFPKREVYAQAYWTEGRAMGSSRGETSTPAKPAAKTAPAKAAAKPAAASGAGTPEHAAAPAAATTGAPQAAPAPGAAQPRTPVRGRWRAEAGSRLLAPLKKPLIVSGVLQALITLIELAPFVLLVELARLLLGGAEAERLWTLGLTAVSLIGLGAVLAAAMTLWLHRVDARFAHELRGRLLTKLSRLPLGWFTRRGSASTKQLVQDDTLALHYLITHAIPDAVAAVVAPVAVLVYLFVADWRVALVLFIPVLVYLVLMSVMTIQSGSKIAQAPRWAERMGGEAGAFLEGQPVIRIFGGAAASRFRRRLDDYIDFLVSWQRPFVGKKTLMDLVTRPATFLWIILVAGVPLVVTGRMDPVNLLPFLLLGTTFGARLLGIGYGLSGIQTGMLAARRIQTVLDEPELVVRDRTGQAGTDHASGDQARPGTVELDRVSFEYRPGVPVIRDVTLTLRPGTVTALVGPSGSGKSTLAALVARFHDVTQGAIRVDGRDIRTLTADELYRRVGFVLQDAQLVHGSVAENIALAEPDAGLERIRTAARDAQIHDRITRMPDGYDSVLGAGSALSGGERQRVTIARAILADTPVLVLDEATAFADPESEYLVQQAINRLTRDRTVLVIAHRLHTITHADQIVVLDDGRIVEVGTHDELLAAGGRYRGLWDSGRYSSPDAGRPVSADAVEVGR
T1 sequence (G7CBF6 1-579): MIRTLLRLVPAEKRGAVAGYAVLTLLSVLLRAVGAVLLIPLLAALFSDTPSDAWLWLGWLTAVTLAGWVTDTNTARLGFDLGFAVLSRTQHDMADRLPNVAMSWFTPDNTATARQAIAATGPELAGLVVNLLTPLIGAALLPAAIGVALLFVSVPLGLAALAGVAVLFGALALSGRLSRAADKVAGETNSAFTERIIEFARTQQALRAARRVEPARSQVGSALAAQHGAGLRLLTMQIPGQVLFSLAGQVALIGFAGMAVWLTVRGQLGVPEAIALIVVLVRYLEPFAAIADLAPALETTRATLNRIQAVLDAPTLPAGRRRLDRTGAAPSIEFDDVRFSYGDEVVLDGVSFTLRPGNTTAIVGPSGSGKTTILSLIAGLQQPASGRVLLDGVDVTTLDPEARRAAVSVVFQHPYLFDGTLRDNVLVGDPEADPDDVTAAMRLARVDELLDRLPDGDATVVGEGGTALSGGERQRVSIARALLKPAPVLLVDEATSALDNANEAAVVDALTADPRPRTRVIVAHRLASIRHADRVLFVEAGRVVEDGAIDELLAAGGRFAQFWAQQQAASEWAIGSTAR

M. smegmatis SID = biological target: T2, M. smegmatis SID (Mycolicibacterium smegmatis, UniProt A0R6H8); test: SPR, biotinylated SID on chip, equilibrium fit; format: binding; conditions: HPLC-purified Fe-cMBT (MW 799 Da), 0-100 μM; single experiment
T2 sequence (A0R6H8 1-250 limits assumed): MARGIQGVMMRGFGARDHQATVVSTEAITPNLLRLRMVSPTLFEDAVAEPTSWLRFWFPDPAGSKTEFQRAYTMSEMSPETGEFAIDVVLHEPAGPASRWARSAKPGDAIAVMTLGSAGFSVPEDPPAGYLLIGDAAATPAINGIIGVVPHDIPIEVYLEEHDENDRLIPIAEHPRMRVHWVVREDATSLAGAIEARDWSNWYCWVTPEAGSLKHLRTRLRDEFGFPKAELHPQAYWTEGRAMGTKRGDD

| fold ATPase stimulation ([1]; Fe-MBT 0.5-40 μM) [fold] | Kd (M. smegmatis SID) [µM] | fold ATPase stimulation ([1]; Fe-cMBT 0.5-40 μM) [fold] | Substance |
| --- | --- | --- | --- |
| > 38 | – | – | Fe-MBT |
| – | > 200 | > 10 | Fe-cMBT |
